Some results are limits rather than exact numbers.

The term IC50 denotes the point on the concentration scale where inhibition reaches its midpoint.

Holding throughout (assay type): cell-based
The target of one assay is T1, human A2A receptor (Homo sapiens, UniProt P29274).
T1 construct: expressed in transfected cells; host or cells: HEK293
Nature of the assay: cAMP (HTRF) functional assay, recombinant HEK293 cells expressing human A2A receptor, agonist NECA. In outline: (§1)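 Cellular cAMP measured by HTRF after 30 min incubation of cells with forskolin, test compounds and agonist. Data normalized to inhibitor control and DMSO neutral control, then curve-fitted.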
(In general: In TR-FRET formats the signal depends on donor and acceptor labels being close together.)

The target of a further assay is T2, human A2B receptor (Homo sapiens, UniProt P29275).
T2 construct: expressed in transfected cells; host or cells: HEK293
T2 sequence (P29275 1-332): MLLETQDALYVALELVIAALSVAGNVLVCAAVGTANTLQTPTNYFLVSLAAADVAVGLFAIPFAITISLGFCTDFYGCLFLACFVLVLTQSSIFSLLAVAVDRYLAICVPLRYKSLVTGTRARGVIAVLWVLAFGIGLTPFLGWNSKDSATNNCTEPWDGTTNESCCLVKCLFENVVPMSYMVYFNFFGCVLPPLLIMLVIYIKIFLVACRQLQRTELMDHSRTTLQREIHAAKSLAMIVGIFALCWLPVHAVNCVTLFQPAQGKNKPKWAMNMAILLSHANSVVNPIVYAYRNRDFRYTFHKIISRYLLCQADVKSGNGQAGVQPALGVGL
The assay can be described thus: cAMP (HTRF) functional assay, recombinant HEK293 cells expressing human A2B receptor, agonist NECA. Summed up:
as §1

The target of another assay is T3, human A1 receptor (Homo sapiens, UniProt P30542).
T3 construct: expressed in transfected cells; host or cells: CHO
T3 sequence (P30542 1-326): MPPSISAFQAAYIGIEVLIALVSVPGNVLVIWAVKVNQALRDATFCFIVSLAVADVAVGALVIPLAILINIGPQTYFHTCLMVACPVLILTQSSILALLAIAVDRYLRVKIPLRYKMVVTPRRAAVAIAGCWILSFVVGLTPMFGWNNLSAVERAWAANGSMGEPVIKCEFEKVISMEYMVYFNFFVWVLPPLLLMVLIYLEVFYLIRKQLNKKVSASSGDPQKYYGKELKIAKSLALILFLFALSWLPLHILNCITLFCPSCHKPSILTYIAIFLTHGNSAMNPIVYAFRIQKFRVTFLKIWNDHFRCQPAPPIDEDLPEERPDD
The assay can be described thus: cAMP (HTRF) functional assay, recombinant CHO cells expressing human A1 receptor, forskolin + agonist CPA. As for the experimental part:
(§2) The functional activities of human A2A, A2B, A1 and A3 receptors were determined by quantification of cAMP, being the second messenger for adenosine receptors.
(§3) For human A1 and A3 receptors, recombinant CHO cells, expressing either A1 or A3-receptor, were used. As both receptors couple to Gi proteins, the assay protocol was adapted:
(§4) Cells were seeded into 384-well plates, forskolin, test compounds and agonists (CPA for A1- and IB-MECA for A3-receptor) were added. After 30 min incubation, HTRF reagents (cAMP dynamic 2, Cis Bio) were added and the cellular cAMP levels were determined using the ENVISION (Perkin Elmer) plate reader. Obtained raw data were normalized against the inhibitor control and the neural control (DMSO) and the normalized data were fitted using GeneData software.

The target of a further assay is T4, human A3 receptor (Homo sapiens, UniProt P0DMS8).
T4 construct: expressed in transfected cells; host or cells: CHO
T4 sequence (P0DMS8 1-318): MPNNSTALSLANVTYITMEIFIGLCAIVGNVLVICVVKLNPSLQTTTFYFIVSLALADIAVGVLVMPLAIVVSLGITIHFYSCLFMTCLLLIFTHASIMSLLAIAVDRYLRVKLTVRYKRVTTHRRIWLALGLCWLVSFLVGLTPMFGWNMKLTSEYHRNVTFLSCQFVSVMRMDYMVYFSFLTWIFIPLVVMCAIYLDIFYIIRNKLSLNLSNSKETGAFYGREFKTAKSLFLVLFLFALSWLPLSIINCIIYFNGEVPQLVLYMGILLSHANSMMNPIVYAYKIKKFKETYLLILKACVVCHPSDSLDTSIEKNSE
Nature of the assay: cAMP (HTRF) functional assay, recombinant CHO cells expressing human A3 receptor, forskolin + agonist IB-MECA. The protocol: as §2, §3, §4

T1 sequence (P29274 whole entry): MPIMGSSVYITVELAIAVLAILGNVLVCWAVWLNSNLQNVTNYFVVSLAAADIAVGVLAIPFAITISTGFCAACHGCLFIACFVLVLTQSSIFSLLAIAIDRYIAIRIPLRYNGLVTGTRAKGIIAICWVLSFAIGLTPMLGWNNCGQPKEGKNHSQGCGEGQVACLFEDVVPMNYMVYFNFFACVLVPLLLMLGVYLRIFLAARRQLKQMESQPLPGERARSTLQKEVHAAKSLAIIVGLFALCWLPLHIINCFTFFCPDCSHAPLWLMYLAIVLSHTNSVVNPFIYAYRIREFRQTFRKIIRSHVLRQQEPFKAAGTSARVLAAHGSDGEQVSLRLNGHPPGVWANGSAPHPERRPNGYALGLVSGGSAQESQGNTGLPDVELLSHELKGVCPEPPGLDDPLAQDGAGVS

Take `COc1ncc(-c2cnn(C)c2)c2sc(NC(=O)N3CCC4(CCOC4)C3)nc12` (stereo not shown) [compound 82, 2-Oxa-7-aza-spiro[4.4]nonane-7-carboxylic acid [4-methoxy-7-(1-methyl-1H-pyrazol-4-yl)-thiazolo[4,5-c]pyridin-2-yl]-amide]: the IC50 on human A2A receptor is less than 10 nM; at human A2B receptor, less than 100 nM; on human A1 receptor, greater than 1000 nM; on human A3 receptor it was greater than 1000 nM.
Turning to `COc1ncc(C2CCOCC2)c2sc(NC(=O)c3ccc(C(=O)N(C)C)cc3)nc12` [compound 113, N-[4-Methoxy-7-(tetrahydro-pyran-4-yl)-thiazolo[4,5-c]pyridin-2-yl]-N′,N′-dimethyl-terephthalamide], the IC50 on human A2A receptor is less than 10 nM; on human A2B receptor, less than 100 nM; at human A1 receptor it was greater than 1000 nM; at human A3 receptor, greater than 1000 nM.
In the case of `COc1ncc(-c2cnn(C)c2)c2sc(NC(=O)c3cnc(C)o3)nc12` [compound 130, 2-Methyl-oxazole-5-carboxylic acid [4-methoxy-7-(1-methyl-1H-pyrazol-4-yl)-thiazolo[4,5-c]pyridin-2-yl]-amide], the IC50 was less than 10 nM on human A2A receptor, less than 100 nM at human A2B receptor, less than 1000 nM at human A1 receptor and greater than 1000 nM at human A3 receptor.
Taken in the same sequence, the figures for `COc1ncc(N2CC3(CCCO3)C2)c2sc(NC(=O)c3cnn(C)c3)nc12` [compound 156, 1-Methyl-1H-pyrazole-4-carboxylic acid [4-methoxy-7-(5-oxa-2-aza-spiro[3.4]oct-2-yl)-thiazolo[4,5-c]pyridin-2-yl]-amide] were less than 100 nM, less than 100 nM, greater than 1000 nM and less than 1000 nM.
In the case of `COc1ncc(N2CCOCC2)c2sc(NC(=O)C3CC3)nc12` [compound 167, Cyclopropanecarboxylic acid (4-methoxy-7-morpholin-4-yl-thiazolo[4,5-c]pyridin-2-yl)-amide], the IC50 is less than 10 nM at human A2A receptor, less than 100 nM at human A2B receptor, greater than 1000 nM on human A1 receptor and greater than 1000 nM on human A3 receptor.
Consider `COc1ncc(N2CCOCC2)c2sc(NC(=O)c3cnn(C)c3)nc12` [compound 171, 1-Methyl-1H-pyrazole-4-carboxylic acid (4-methoxy-7-morpholin-4-yl-thiazolo[4,5-c]pyridin-2-yl)-amide], for which the IC50 was less than 10 nM at human A2A receptor, less than 100 nM on human A2B receptor, less than 1000 nM on human A1 receptor and less than 1000 nM on human A3 receptor.
For the compound `COc1ncc(-c2cnn(C)c2)c2sc(NC(=O)N3CC[C@]4(CCOC4)C3)nc12` [compound 173, (S)-2-Oxa-7-aza-spiro[4.4]nonane-7-carboxylic acid [4-methoxy-7-(1-methyl-1H-pyrazol-4-yl)-thiazolo[4,5-c]pyridin-2-yl]-amide], the IC50 on human A2A receptor was less than 10 nM; on human A2B receptor, less than 100 nM; on human A1 receptor it was greater than 1000 nM; at human A3 receptor, greater than 1000 nM.
`COc1ncc(-c2cnn(C)c2)c2sc(NC(=O)C3CC3)nc12` [compound 179, Cyclopropanecarboxylic acid [4-methoxy-7-(1-methyl-1H-pyrazol-4-yl)-thiazolo[4,5-c]pyridin-2-yl]-amide]: the IC50 at human A2A receptor was less than 10 nM; on human A2B receptor it was less than 100 nM; at human A1 receptor, greater than 1000 nM; on human A3 receptor, less than 1000 nM.
Turning to `COc1ncc(-c2ccccc2)c2sc(NC(=O)c3cnc(C)o3)nc12` [compound 186, 2-Methyl-oxazole-5-carboxylic acid (4-methoxy-7-phenyl-thiazolo[4,5-c]pyridin-2-yl)-amide], the IC50 is less than 10 nM on human A2A receptor, less than 100 nM at human A2B receptor, less than 1000 nM at human A1 receptor and less than 1000 nM at human A3 receptor.
On to `COc1ncc(-c2ccccc2)c2sc(NC(=O)C3CC3)nc12` [compound 187, Cyclopropanecarboxylic acid (4-methoxy-7-phenyl-thiazolo[4,5-c]pyridin-2-yl)-amide], for which the IC50 at human A2A receptor was less than 10 nM; on human A2B receptor, less than 100 nM; at human A1 receptor it was less than 1000 nM; on human A3 receptor it was less than 1000 nM.
On to `COc1ncc(-c2ccccc2)c2sc(NC(=O)c3cnc(C)s3)nc12` [compound 190, 2-Methyl-thiazole-5-carboxylic acid (4-methoxy-7-phenyl-thiazolo[4,5-c]pyridin-2-yl)-amide], for which the IC50 on human A2A receptor was less than 10 nM; on human A2B receptor, less than 100 nM; at human A1 receptor, less than 1000 nM; at human A3 receptor, less than 1000 nM.
Regarding `COc1ncc(-c2cccc(F)c2)c2sc(NC(=O)N3CCC4(CCOCC4)C3)nc12` [compound 194, 8-Oxa-2-aza-spiro[4.5]decane-2-carboxylic acid [7-(3-fluoro-phenyl)-4-methoxy-thiazolo[4,5-c]pyridin-2-yl]-amide], the IC50 is less than 10 nM on human A2A receptor, less than 100 nM on human A2B receptor, less than 1000 nM at human A1 receptor and greater than 1000 nM at human A3 receptor.
As for `COc1ncc(-c2ccccc2F)c2sc(NC(=O)N3CCC4(CCOCC4)C3)nc12` [compound 195, 8-Oxa-2-aza-spiro[4.5]decane-2-carboxylic acid [7-(2-fluoro-phenyl)-4-methoxy-thiazolo[4,5-c]pyridin-2-yl]-amide], the IC50 on human A2A receptor was less than 10 nM; on human A2B receptor, less than 100 nM; on human A1 receptor it was greater than 1000 nM; on human A3 receptor it was greater than 1000 nM.
With `COc1ncc(-c2ccccc2)c2sc(NC(=O)C3(N)CC3)nc12` [compound 203, 1-Amino-cyclopropanecarboxylic acid (4-methoxy-7-phenyl-thiazolo[4,5-c]pyridin-2-yl)-amide], the IC50 is less than 10 nM on human A2A receptor, less than 100 nM on human A2B receptor, less than 1000 nM at human A1 receptor and less than 1000 nM at human A3 receptor.
Turning to `COc1ncc(-c2ccccc2)c2sc(NC(=O)N3CC[C@@]4(CCCOC4)C3)nc12` [compound 204, (S)-7-Oxa-2-aza-spiro[4.5]decane-2-carboxylic acid (4-methoxy-7-phenyl-thiazolo[4,5-c]pyridin-2-yl)-amide], the IC50 at human A2A receptor is less than 10 nM; on human A2B receptor, less than 100 nM; on human A1 receptor, less than 1000 nM; at human A3 receptor, greater than 1000 nM.
As to `COc1ncc(-c2ccccc2)c2sc(NC(=O)N3CC[C@]4(CCCOC4)C3)nc12` [compound 205, (R)-7-Oxa-2-aza-spiro[4.5]decane-2-carboxylic acid (4-methoxy-7-phenyl-thiazolo[4,5-c]pyridin-2-yl)-amide], the IC50 is less than 10 nM at human A2A receptor, less than 100 nM at human A2B receptor, greater than 1000 nM at human A1 receptor and greater than 1000 nM on human A3 receptor.
Regarding `COc1ncc(-c2ccccc2)c2sc(NC(=O)N3CC[C@]4(CCOC4)C3)nc12` [compound 207, (S)-2-Oxa-7-aza-spiro[4.4]nonane-7-carboxylic acid (4-methoxy-7-phenyl-thiazolo[4,5-c]pyridin-2-yl)-amide], the IC50 was less than 10 nM at human A2A receptor, less than 100 nM at human A2B receptor, less than 1000 nM on human A1 receptor and greater than 1000 nM on human A3 receptor.
`COc1ncc(-c2ccccc2)c2sc(NC(=O)N3CC[C@@]4(CCOC4)C3)nc12` [compound 208, (R)-2-Oxa-7-aza-spiro[4.4]nonane-7-carboxylic acid (4-methoxy-7-phenyl-thiazolo[4,5-c]pyridin-2-yl)-amide]: the IC50 at human A2A receptor was less than 10 nM; at human A2B receptor it was less than 100 nM; at human A1 receptor, greater than 1000 nM; at human A3 receptor it was greater than 1000 nM.
Turning to `COc1ncc(-c2cccc(F)c2F)c2sc(NC(=O)N3CCC4(CCOCC4)C3)nc12` [compound 209, 8-Oxa-2-aza-spiro[4.5]decane-2-carboxylic acid [7-(2,3-difluoro-phenyl)-4-methoxy-thiazolo[4,5-c]pyridin-2-yl]-amide], the IC50 on human A2A receptor is less than 10 nM; on human A2B receptor, less than 100 nM; at human A1 receptor, greater than 1000 nM; at human A3 receptor, greater than 1000 nM.

The values above are taken from US11186592B2, “Thiazolopyridine derivatives as adenosine receptor antagonists” (MERCK PATENT GMBH, priority 2017, dated 2021).
